Measurements: US20090317476A1, “COMBINATION OF DEHYDROEPIANDROSTERONE OR DEHYDROEPIANDROSTERONE-SULFATE WITH A LEUKOTRIENE RECEPTOR ANTAGONIST FOR TREATMENT OF ASTHMA OR CHRONIC OBSTRUCTIVE PULMONARY DISEASE” (priority 2003, published 2009)
Where “and” joins values, the source holds several entries; their conditions need not be identical. Equal values may be shown once.

Key:
[1] = test system: Intracellular adenosine; assay: In vivo effect on adenosine levels in rat tissues
Experimental: Folinic acid (50 mg/kg) was administered intraperitoneally once daily for fourteen days. […] Hearts were removed from animals and flash frozen in liquid nitrogen with 10 s of death. Liver and lungs were removed en bloc and flash frozen with 30 s of death. Brain tissue was subsequently dissected.

[2] = Particle size by Malvern Mastersizer X / light microscope after jet milling or spray drying; format: physicochemical
Experimental: Approximately 1 g sample was passed through the jet mill, once, and approximately 2 g sample were passed through the jet mill twice. […] The resulting solution was sonicated for 3 minutes and appeared fully dispersed. The dispersed solutions were tested on a Malvern Mastersizer X with a small volume sampler (SVS) attachment. One sample of dispersed material was tested 5 times. The median particle size or D (v, 0.5) of unmilled material was 52.56 μm and the % RSD (relative standard deviation) was 7.61 for the 5 values. The D (v, 0.5) for a single pass through the jet mill was 3.90 μm and the % RSD was 1.27, and the D (v, 0.5) from a double pass through the jet mill 3.25 μm and the % RSD was 3.10.
The solution was spray-dried with a B-191 Mini Spray-Drier (Buchi, Flawil, Switzerland) with an inlet temperature of 55° C., outlet temperature of 40° C., at 100% aspirator, at 10% pump, nitrogen flow at 40 mbar and spray flow at 600 units. The spray-dried product was suspended in hexane and Span85 surfactant added to reduce agglomeration. The dispersions were sonicated with cooling for 3-5 minutes for complete dispersion and the dispersed solutions tested on a Malvern Mastersizer X with a Small Volume Sampler (SVS) attachment. […] Visual examination by light microscope of the dispersions of each batch confirmed that spray drying produced small respirable size particles. The mean particle size was 2.4 μm and 2.0 μm for each batch, respectively.

[3] = test system: HT-29 SF cells; assay: DHEA effect on cell cycle, flow cytometry; format: cell-based, human; conditions: 25, 50, 200 μM; 24-72 hours
Experimental: Cells were plated at 10^5/60-mm dish in duplicate. […] Cultures were trypsinized following 0, 24, 48, or 74 hours and fixed and stained using a modification of a procedure of Bauer et al., Cancer Res. 46, 3173-3178 (1986). Briefly, cells were collected by centrifugation and resuspended in cold phosphate-buffered saline. Cells were fixed in 70% ethanol, washed, and resuspended in phosphate-buffered saline.
After 24, 48, and 72 hours, cells were harvested, fixed in ethanol, and stained with propidium iodide, and the DNA content/cell was determined by flow cytometric analysis. The percentage of cells in G1, S, and G2M phases was calculated using the Cellfit cell cycle analysis program. S phase is marked by a quadrangle for clarity. Representative histograms from duplicate determinations are shown. The experiment was repeated three times.

[4] = Solubility of DHEA-S as a function of NaCl and temperature; format: physicochemical; conditions: 20 mM Na^+; Ksp 1316 mM^2; 15° C.
Excerpt: Inhalation of pure water can produce a cough stimulus. […] The temperature effect is weaker at high NaCl concentrations.

[5] = Short-term solution stability of DHEA-S formulation; format: physicochemical; conditions: for Appearance on storage: 10 mg/mL in 0.12% NaCl
Experimental: Aliquots of this solution are filled into clear glass vials and stored at RT (24-26° C.) and at 40° C. The samples are checked daily for DHEA-S content, DHEA content, and appearance. For each time point, duplicate samples are withdrawn and diluted from each vial. […] The study is stopped on day three. […] The solution should easily be stable for the day of reconstitution in a clinical trial. The following section describes the aerosol properties of this formulation.

[6] = test system: rat peritoneal mast cells; assay: Mast cell degranulation (histamine secretion) after compound 48/80; format: cell-based
Excerpt: Leukotrienes are synthesized within—although not exclusively by the mast cell (Gilchrist, M., McCauley, S.D., & Befus, A. D. (2004) Expression, localization, and regulation of NOS in human mast cell lines: effects on leukotriene production. Blood 104, 462-469.). We determined whether DHEA-sulfate would reduce mast cell degranulation after stimulation with compound 48/80 in rat peritoneal mast cells. Mast cell degranulation was quantified by measurement of histamine, another substance contained within the secretory granules of mast cells. The simple measurement of released histamine is used as a convenient surrogate marker for the release of leukotrienes.
Freshly isolated rat peritoneal mast cells (2×10^5 cells) were pre-incubated for 5 min at 37° C. in a Balanced Salt Solution containing 150 mM NaCl (pH 7.4), 2.7 mM KCl, 0.9 mM CaCl2, 4 mM Na2HPO4, 2.7 mM KH2PO4, 1.75 mg/ml BSA and 0.1 μg/ml compound 48/80. Thereafter, DHEAS or water (control) are added and the mixture is incubated for 2 min at 37° C.
Following incubation, the mixture is cooled to 4° C. then centrifuged at 4500 rpm for 5 min. […]
The amount of secreted histamine is quantified by measuring the fluorescence intensity at λex=360 nm and λem=450 nm using a spectrofluorimeter (GeminiXS, Molecular Devices). The results are expressed as a percent inhibition of control histamine secretion.

[7] = Physicochemical testing of DHEA-S dihydrate before and after micronization; conditions: for Water (% w/w): Karl Fischer
Experimental: Surface area is determined using five point BET analyses are performed with nitrogen as the adsorbing gas (P/Po=0.05 to 0.30) using a Micromeritics TriStar surface area analyzer. Particle size distributions are measured by laser diffraction using a Micromeritics Saturn Digisizer where the particles are suspended in mineral oil with sodium dioctyl sodium sulfosuccinate as a dispersing agent. Drug substance water content is measured by Karl Fischer titration (Schott Titroline KF). Pure water is used as the standard and all relative standard deviations for triplicates are less than 1%. Powder is added directly to the titration media.

[8] = Solid-state stability neat and with lactose at 50° C. (DHEA formed, HPLC); format: physicochemical
Excerpt: These conditions were used to stress the formulation in order to predict its long-term stability results. […] The primary degradant is DHEA. […] The materials on accelerated storage become more cohesive with time as evidenced by clumping during sample weighing for chemical analysis. […] This is a considerable disadvantage since lactose is the most commonly used inhalation excipient for dry powder formulations. Continuing with the virtually anhydrous form would mean limiting formulations to neat powder or undertaking more comprehensive safety studies to use a novel excipient.

[9] = cited from earlier work

For Nc1nc(=O)c2c([nH]1)NCC(CNc1ccc(C(=O)N[C@@H](CCC(=O)O)C(=O)O)cc1)N2C=O (mixture of isomers) [Folinic Acid, Folinic acid], which “Effect on adenosine levels, administered alone” value ([1]; all organs studied) is on record?
The value was “increase in adenosine levels”.

What about the “Effect of coadministration of folinic acid on steroid-mediated adenosine depletion” value ([1]; with DHEA or methyltestosterone) of the same molecule?
Its value is “completely abrogated steroid-mediated adenosine depletion”.

For C[C@]12CC[C@H](OS(=O)(=O)[O-])CC1=CC[C@@H]1[C@@H]2CC[C@]2(C)C(=O)CC[C@@H]12.[Na+] [Anhydrous DHEA-S], which “D (v, 0.5)” value ([2]; double pass through the jet mill) is on record?
The value was 3.25 μm.

What about the “D (v, 0.5)” value ([2]; single pass through the jet mill) of the same molecule?
Its value is 3.90 μm.

What about the “median particle size or D (v, 0.5)” value ([2]; unmilled material) of the same molecule?
The value was 52.56 μm.

Which “Effect on cell cycle distribution” value [3] does the source give for C[C@]12CC[C@H](O)CC1=CC[C@@H]1[C@@H]2CC[C@]2(C)C(=O)CC[C@@H]12 [DHEA, 3β-hydroxyandrost-5-en-17-one] here?
Its value is “G1 block”.

With C[C@]12CC[C@H](OS(=O)(=O)[O-])CC1=CC[C@@H]1[C@@H]2CC[C@]2(C)C(=O)CC[C@@H]12.[Na+] [DHEA-S, sodium dehydroepiandrostenone sulfate] as the molecule, how does the “calculated DHEA-S solution concentration” value [4] read?
The value was 10.7 mg/mL.

And the “calculated DHEA-S^− solution concentration” value [4]?
Its value is 27.5 mM.

What about the “Stability of nebulizer formulation” value ([5]; 7.5 mg/mL of DHEA-S in 0.12% NaCl, RT) of the same molecule?
Its value is “stable for at least one day at RT”.

And the Appearance on storage ([5]; 40° C.)?
The Appearance on storage was “became cloudy after two days of storage”.

What about the Appearance on storage ([5]; RT (24-26° C.)) of the same molecule?
The Appearance on storage was “slight precipitate is observed on the third day”.

And the “maximal effect, percent inhibition of control histamine secretion” value ([6]; at 0.1 uM, compound 48/80 stimulated)?
Its value is 69.9%.

And the “solubility under the assay conditions” value ([6]; at 10^-4 M)?
Its value is “highly limited”.

Which “Particle size (D50%)” value ([7]; Bulk) does the source give for C[C@]12CC[C@H](OS(=O)(=O)[O-])CC1=CC[C@@H]1[C@@H]2CC[C@]2(C)C(=O)CC[C@@H]12.O.O.[Na+] [DHEA-S•dihydrate] here?
The value was 31 microns.

What about the “Water (% w/w)” value ([7]; Bulk) of the same molecule?
Its value is 8.5 % w/w.

What about the “Particle size (D50%)” value ([7]; Micronized) of the same molecule?
The value was 3.7 microns.

What about the “Water (% w/w)” value ([7]; Micronized) of the same molecule?
Its value is 8.4 % w/w.

What about the “Surface area (m^2/g)” value ([7]; Micronized, five point BET) of the same molecule?
Its value is 4.9 m^2/g.

What about the “Percent DHEA formed” value ([8]; DHEA-S dihydrate, 50° C., 1 week) of the same molecule?
The value was 0.216%.

And the “Percent DHEA formed” value ([8]; DHEA-S dihydrate, 50° C., 3 weeks)?
The value was 0.317%.

And the “Percent DHEA formed” value ([8]; DHEA-S dihydrate, 50° C., 4 weeks)?
The value was 0.374%.

What about the “water content, starting value” ([8]; before storage) of the same molecule?
The value was 8.8%.

What about the “Percent DHEA formed” value ([8]; dihydrate, Control, neat, sealed, 25° C., 4 weeks) of the same molecule?
The value was 0.218%.

And the “Percent DHEA formed” value ([8]; dihydrate, Control, neat, sealed, 25° C., Time (Weeks))?
The value was 0.213%.

What about the “water content after accelerated storage” value ([8]; one week at 50° C.) of the same molecule?
The value was 8.66%.

With C[C@]12CC[C@H](OS(=O)(=O)[O-])CC1=CC[C@@H]1[C@@H]2CC[C@]2(C)C(=O)CC[C@@H]12.[Na+] [Spray-Dried Drug Product] as the molecule, how does the mean particle sizes ([2]; two batches of spray dried material, Malvern Mastersizer X, listed as spray-dried product) read?
Its mean particle sizes is 5.07±0.70 μm and 6.66±0.91 μm.

What does the source list for COc1cc(C(=O)NS(=O)(=O)c2ccccc2C)ccc1Cc1cn(C)c2ccc(NC(=O)OC3CCCC3)cc12 [Zafirlukast, 4(5-cyclopentyloxy-carbonylamino-1-methyl-indol-3ylmethyl)-3methoxy-N-o-tolylsulfonylbenzamide]?
Solubility in acetone [9]: freely soluble; Solubility in dimethylsulfoxide [9]: freely soluble; Solubility in methanol [9]: slightly soluble; Solubility in tetrahydrofuran [9]: freely soluble; Solubility in water [9]: practically insoluble
